Assay [1] concerns the target Serine/threonine-protein kinase pim-3 (Homo sapiens) (UniProt Q86V86). Put plainly: Selectivity interaction (Kinase panel (Z-LYTE Assay)) EUB0001632a PIM3. Conditions: at 10 µM.
Assay [2] deals with T1, Mitogen-activated protein kinase kinase kinase kinase 2 (Homo sapiens) (UniProt Q12851).
T1 sequence (whole entry): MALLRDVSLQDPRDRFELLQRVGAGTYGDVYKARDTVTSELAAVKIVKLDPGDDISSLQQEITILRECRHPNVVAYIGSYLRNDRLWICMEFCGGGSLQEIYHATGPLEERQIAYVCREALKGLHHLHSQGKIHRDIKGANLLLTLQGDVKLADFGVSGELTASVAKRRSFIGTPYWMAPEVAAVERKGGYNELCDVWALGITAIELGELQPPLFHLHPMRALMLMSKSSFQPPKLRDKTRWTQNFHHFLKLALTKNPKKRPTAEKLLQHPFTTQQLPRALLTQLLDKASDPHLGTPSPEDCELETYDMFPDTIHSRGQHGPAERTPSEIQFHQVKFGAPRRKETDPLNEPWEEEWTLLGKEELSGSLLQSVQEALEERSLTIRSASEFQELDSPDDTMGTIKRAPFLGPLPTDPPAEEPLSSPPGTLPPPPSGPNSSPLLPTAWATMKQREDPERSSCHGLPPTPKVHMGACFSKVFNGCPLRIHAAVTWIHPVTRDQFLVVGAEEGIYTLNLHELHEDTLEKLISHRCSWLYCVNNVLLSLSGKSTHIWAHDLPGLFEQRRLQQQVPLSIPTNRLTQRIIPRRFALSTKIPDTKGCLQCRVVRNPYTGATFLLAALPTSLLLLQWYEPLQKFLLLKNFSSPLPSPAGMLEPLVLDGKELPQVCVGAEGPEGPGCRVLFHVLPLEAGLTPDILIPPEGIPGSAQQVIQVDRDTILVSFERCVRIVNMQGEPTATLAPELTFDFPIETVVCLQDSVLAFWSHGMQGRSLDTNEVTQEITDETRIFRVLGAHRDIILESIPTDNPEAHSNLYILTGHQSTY
Put plainly: Selectivity interaction (SelectScreen profiling (Invitrogen)) EUB0000607a MAP4K2. Conditions: at 2 µM.

Assay [3] has as its target T2, Mitogen-activated protein kinase kinase kinase 3 (Homo sapiens) (UniProt Q99759).
T2 sequence (whole entry): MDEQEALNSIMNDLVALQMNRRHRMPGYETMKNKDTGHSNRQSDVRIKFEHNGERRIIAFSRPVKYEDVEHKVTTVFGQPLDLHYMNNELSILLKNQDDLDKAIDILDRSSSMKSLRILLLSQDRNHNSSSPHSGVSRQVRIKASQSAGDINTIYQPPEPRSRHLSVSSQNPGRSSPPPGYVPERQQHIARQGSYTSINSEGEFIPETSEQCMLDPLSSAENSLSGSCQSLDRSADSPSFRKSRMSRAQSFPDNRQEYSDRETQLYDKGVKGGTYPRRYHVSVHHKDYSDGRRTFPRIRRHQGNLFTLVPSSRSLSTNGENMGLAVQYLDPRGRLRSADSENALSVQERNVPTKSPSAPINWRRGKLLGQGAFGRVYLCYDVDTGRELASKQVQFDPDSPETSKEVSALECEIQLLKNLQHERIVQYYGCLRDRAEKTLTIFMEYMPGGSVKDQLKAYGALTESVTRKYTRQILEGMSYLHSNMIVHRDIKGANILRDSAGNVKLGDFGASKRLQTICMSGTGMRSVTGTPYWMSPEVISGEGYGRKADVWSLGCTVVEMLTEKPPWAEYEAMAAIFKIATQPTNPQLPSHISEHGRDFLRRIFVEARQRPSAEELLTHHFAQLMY
Conditions: at 10 µM.

Assay [4] deals with T3, Serine/threonine-protein kinase RIO3 (Homo sapiens) (UniProt O14730).
T3 sequence (whole entry): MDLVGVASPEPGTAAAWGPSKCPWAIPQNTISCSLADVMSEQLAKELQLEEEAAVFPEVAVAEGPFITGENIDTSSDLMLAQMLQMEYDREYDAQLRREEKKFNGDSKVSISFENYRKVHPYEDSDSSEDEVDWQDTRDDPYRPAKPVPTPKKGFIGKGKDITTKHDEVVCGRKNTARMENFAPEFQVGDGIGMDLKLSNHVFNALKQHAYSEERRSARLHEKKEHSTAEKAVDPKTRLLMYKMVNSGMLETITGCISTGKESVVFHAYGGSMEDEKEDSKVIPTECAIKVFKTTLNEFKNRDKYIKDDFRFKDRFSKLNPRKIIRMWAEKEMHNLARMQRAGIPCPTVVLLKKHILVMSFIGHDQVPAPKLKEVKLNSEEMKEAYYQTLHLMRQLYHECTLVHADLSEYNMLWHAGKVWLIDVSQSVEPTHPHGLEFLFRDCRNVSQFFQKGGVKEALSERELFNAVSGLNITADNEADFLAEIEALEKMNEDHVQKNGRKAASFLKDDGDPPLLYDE
As to the kind of experiment: Selectivity interaction (KinomeScan (DiscoverX)) EUB0000666a RIOK3. The settings on record: at 10 µM.

In assay [5] the target is Tyrosine-protein kinase Fgr (Homo sapiens) (UniProt P09769). Put plainly: Selectivity interaction (KinomeScan (DiscoverX)) EUB0000655a FGR. The settings on record: at 10 µM.
For assay [6], the target named is Tyrosine-protein kinase Lyn (Homo sapiens, UniProt P07948). As to the kind of experiment: Selectivity interaction (KinomeScan (DiscoverX)) EUB0000655a LYN. Conditions: at 10 µM.
The target of assay [7] is Ephrin type-A receptor 2 (Homo sapiens) (UniProt P29317). As to the kind of experiment: Selectivity interaction (KinomeScan (DiscoverX)) EUB0001079a EPHA2. The settings on record: at 1 µM.
The target of assay [8] is Tyrosine-protein kinase SYK (Homo sapiens, UniProt P43405). Put plainly: Selectivity interaction (KinomeScan (DiscoverX)) EUB0001079a SYK. The settings on record: at 1 µM.
Assay [9] relates to Tyrosine-protein kinase ABL1 (Homo sapiens), P00519 [Q252H]. Conditions: at 10 µM.
The target in assay [10] is Inhibitor of nuclear factor kappa-B kinase subunit alpha (Homo sapiens, UniProt O15111). As to the kind of experiment: Selectivity interaction (Kinase panel (Enzyme activity assay)) EUB0000612a CHUK.
For assay [11], the target named is T4, Serine/threonine-protein kinase STK11 (Homo sapiens) (UniProt Q15831).
T4 sequence (whole entry): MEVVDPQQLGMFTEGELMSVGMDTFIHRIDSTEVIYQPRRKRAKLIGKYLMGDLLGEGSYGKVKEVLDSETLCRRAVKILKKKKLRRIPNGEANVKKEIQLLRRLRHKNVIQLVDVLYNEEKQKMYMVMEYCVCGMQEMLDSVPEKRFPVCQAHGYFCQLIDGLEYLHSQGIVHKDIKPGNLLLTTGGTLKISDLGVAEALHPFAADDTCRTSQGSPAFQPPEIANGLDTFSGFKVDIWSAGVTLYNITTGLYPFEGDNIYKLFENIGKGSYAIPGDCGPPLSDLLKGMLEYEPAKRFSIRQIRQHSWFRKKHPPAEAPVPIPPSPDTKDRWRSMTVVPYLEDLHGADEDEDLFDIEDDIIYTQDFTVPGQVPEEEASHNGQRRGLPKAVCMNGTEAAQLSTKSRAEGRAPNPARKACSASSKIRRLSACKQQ
Put plainly: Selectivity interaction (KinomeScan (DiscoverX)) EUB0000045b STK11.

Inhibitor of nuclear factor kappa-B kinase subunit alpha, sequence (O15111 whole entry): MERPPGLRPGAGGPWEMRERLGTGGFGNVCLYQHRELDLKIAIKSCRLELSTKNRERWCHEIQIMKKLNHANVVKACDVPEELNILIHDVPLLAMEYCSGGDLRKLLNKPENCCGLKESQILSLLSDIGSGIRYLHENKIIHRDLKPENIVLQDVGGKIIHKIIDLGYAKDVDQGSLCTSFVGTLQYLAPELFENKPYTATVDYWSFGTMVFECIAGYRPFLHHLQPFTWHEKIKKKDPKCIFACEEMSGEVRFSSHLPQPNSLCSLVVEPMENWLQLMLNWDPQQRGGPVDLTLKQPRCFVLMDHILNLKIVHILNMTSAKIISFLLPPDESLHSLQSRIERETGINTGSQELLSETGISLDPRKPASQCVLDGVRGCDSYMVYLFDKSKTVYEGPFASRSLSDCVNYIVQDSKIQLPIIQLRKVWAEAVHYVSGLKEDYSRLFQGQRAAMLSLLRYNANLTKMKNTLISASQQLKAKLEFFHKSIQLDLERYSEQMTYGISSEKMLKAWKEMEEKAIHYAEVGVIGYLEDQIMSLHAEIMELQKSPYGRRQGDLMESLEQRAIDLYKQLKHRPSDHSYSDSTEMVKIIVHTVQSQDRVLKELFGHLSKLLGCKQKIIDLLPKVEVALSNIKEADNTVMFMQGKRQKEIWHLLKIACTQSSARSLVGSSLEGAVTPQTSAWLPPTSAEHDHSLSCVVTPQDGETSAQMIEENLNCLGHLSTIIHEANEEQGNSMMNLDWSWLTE
Ephrin type-A receptor 2 (Homo sapiens), sequence (P29317 whole entry): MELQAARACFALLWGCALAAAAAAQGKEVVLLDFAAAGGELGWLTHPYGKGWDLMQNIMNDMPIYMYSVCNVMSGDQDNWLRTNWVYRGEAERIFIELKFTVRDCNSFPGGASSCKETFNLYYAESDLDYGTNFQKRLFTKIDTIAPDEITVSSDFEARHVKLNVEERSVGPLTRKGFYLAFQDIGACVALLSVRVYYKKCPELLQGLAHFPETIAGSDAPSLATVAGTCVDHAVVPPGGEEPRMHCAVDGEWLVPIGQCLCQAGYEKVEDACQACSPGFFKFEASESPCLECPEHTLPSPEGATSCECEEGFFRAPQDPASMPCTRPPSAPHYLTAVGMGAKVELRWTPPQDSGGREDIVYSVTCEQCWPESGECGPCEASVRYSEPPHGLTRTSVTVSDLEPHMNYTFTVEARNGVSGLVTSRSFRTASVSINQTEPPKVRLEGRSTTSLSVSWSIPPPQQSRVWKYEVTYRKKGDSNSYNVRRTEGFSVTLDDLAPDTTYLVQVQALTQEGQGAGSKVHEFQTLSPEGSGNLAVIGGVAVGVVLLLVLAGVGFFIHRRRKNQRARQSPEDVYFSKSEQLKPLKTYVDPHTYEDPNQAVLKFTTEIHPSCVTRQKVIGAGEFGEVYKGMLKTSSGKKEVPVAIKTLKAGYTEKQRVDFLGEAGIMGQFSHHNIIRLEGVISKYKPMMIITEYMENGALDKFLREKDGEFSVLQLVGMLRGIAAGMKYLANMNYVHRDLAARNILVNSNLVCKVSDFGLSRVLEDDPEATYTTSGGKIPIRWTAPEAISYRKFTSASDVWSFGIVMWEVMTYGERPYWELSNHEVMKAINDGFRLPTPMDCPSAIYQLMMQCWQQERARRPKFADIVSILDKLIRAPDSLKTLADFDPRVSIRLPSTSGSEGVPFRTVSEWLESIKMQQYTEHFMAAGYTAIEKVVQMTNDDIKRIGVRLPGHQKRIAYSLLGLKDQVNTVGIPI
Tyrosine-protein kinase Fgr (Homo sapiens), sequence (P09769 2-529 limits assumed): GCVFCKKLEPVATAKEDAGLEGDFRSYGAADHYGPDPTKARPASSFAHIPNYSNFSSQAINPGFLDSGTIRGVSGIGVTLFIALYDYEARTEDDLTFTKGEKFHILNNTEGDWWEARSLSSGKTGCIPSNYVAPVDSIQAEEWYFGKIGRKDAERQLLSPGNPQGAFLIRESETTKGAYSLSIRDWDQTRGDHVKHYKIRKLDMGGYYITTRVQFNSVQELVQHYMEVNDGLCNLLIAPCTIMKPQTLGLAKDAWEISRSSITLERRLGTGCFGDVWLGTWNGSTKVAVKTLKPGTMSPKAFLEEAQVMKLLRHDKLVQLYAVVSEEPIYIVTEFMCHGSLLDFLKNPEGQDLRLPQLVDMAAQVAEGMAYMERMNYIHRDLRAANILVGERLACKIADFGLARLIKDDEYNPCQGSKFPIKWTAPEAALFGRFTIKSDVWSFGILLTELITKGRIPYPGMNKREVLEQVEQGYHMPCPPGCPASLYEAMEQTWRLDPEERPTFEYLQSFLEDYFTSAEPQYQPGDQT
Tyrosine-protein kinase Lyn, sequence (P07948 2-512 limits assumed): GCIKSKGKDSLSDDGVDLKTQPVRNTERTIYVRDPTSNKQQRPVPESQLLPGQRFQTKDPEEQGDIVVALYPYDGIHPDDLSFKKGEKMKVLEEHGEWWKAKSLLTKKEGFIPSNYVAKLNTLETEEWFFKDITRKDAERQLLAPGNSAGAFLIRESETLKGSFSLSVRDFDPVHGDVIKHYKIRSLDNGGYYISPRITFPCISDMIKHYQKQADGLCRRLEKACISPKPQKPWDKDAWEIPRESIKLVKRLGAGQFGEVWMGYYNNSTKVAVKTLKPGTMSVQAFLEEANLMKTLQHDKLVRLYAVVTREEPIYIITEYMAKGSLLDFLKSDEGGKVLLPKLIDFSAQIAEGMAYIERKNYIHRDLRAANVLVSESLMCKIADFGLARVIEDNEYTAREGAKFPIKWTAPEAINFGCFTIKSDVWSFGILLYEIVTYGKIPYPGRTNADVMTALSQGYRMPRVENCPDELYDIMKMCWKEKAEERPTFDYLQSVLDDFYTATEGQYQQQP

For the compound `Cn1cc(-n2cnc3c(NCc4nc5cc(Cl)c(Cl)cc5[nH]4)nc(N4CCOCC4)nc32)cn1`, the % of control in [1] is -7.71%.

`CNC(=O)Nc1ccc(-c2nc(N3CC4CCC(C3)O4)c3cnn(C4CCC5(CC4)OCCO5)c3n2)cc1`: the % of inhibition in assay [2] was determined as 3%. Take `Cc1cc([C@@H](C)Nc2ccccc2C(=O)O)c2nc(N3CCOCC3)cc(=O)n2c1` [AZD-6482]: in assay [3], the % of control was found to be 87%.

For `O=C(NOC[C@H](O)CO)c1ccc(F)c(F)c1Nc1ccc(I)cc1F`, the % of control in assay [4] amounted to 100%. Turning to `CN(C)CCOc1ccc(-c2nc(-c3ccncc3)c(-c3ccc4c(c3)CC/C4=N\O)[nH]2)cc1`, the results for the % of control in assay [5] and in assay [6] were 87% and 86%, respectively.

On to `Nc1cnc(N2CCc3cc(S(=O)(=O)Nc4c(F)cc(Cl)cc4F)cc(N4CCCC4=O)c32)nc1` [TP-020n], for which the % of control in [7] and in [8] was 100% each time. For the compound `CCN(CC)CCCCNc1ncc2cc(-c3cc(OC)cc(OC)c3)c(NC(=O)NC(C)(C)C)nc2n1`, the % of control in [9] was determined as 100%. Turning to `CCc1cccc(CC)c1NC(=O)c1nn(C)c2c1CCc1cnc(Nc3ccc(C(=O)NC4CCN(C)CC4)cc3OC(F)(F)F)nc1-2`, the concentration for half-maximal inhibition (IC50) in assay [10] was greater than 10 µM. With `C=CC(=O)Nc1cc(-n2c(=O)ccc3cnc4ccc(-c5ccc(NS(C)(=O)=O)cc5)cc4c32)ccc1C`, the % of control in [11] (at 1 µM) came to 79%; in assay [11] (at 10 µM), 100%.
